Data on ten molecules can be found in article PMC11582173, “Synthesis, cytotoxicity, anti-inflammatory, anti-metastatic and anti-oxidant activities of novel chalcones incorporating 2-phenoxy-N-arylacetamide and thiophene moieties: induction of apoptosis in MCF7 and HEP2 cells” (Naunyn-Schmiedeberg's Archives of Pharmacology, 2024).

Data set [1] deals with human laryngeal carcinoma (HEP2) cells. The data set is described as follows: SRB cytotoxic assay, HEP2. Format: cell-based. As to conditions: HEp-2, 48 h; for inhibition at 100 µg/mL: single dose 100 µg/mL, read-out: %Inhibition at100 µg/mL HEP2. The method, then: (§1) All the prepared compounds were screened at a concentration of 100 µg/mL against six different human cell lines: human laryngeal carcinoma (HEP2), human colorectal carcinoma (HCT116), human breast carcinoma (MCF7), human Lung carcinoma (A549), human liver carcinoma (HEPG2), and normal African Green monkey kidney cell line (VERO). Doxorubicin was used as a positive control for comparison purposes.
(§2) The human laryngeal carcinoma (HEP2), colorectal carcinoma (HCT116), breast carcinoma (MCF7), Lung carcinoma (A549), liver carcinoma (HEPG2), and normal African Green monkey kidney cell line (VERO) were purchased from American Tissue Culture Collection (Rockville, MD, USA). The cells were treated for 48 h with a single dose (100 µg/mL) of all the tested chalcones. […] In brief, the cells were seeded in a 96-well microtiter plate at a concentration of 5×10^3 cells/well in 100 µL fresh RPMI-1640 medium and left to attach to the plates for 24 h. Then, cells were incubated with 100 μL of different concentrations (50, 25, 12.5, 6.25, and 0.0 µg/mL) of 5c in triplicate at 37 °C for 48 h. After that, the cells were fixed with 10 µL cold 100% Trichloroacetic acid (TCA) for 1h at 4 °C. The wells were then washed 1 time with distilled water using (automatic Tecan washer, Germany) and stained for 30 min at room temperature with 50 µL 0.4% SRB dissolved in 1% acetic acid. The plates were air-dried and the dye was solubilized with 100 µl/well of 1M tris base (pH 10.5) for 5 min. The optical density (O.D.) of each well was measured spectrophotometrically at 570 nm with an ELISA microplate reader (Sunrise Tecan reader, Germany) with automatic shaking for 30 seconds before reading. The mean background absorbance was subtracted automatically and mean values for each drug concentration were calculated. The percentage of cell survival was calculated as follows: Survival fraction= O.D. (treated cells)/ O.D. (control cells) (Bhat et al. [2023]).

Data set [2] concerns human colorectal carcinoma (HCT116) cells. The data set is described as follows: SRB cytotoxic assay, HCT116. Format: cell-based. Particulars: HCT-116, single dose 100 µg/mL, 48 h, read-out: %Inhibition at100 µg/mL HCT116. On the procedure: as §1, §2
For data set [3], the system named is human breast carcinoma (MCF7) cells. The data set can be described thus: SRB cytotoxic assay, MCF7. It is filed as cell-based. Particulars: MCF7, 48 h; for inhibition at 100 µg/mL: single dose 100 µg/mL, read-out: %Inhibition at100 µg/mL MCF7. On the procedure:
as §1, §2

Data set [4] has as its system human Lung carcinoma (A549) cells. The data set is described as follows: SRB cytotoxic assay, A549. As to conditions: single dose 100 µg/mL, 48 h, read-out: %Inhibition at100 µg/mL A549. It is filed as cell-based. The method, then: as §1, §2
Data set [5] deals with human liver carcinoma (HEPG2) cells. The data set is described as follows: SRB cytotoxic assay, HEPG2. Format: cell-based. Particulars: single dose 100 µg/mL, 48 h, read-out: %Inhibition at100 µg/mL HEPG2. On the procedure:
as §1, §2

In data set [6] the test system is normal African Green monkey kidney cell line (VERO). The data set can be described thus: SRB cytotoxic assay, VERO normal cells. Format: cell-based. As to conditions: Chlorocebus sabaeus, single dose 100 µg/mL, 48 h, read-out: %Inhibition at100 µg/mL VERO. On the procedure:
as §1, §2

The subject of the next data set is MCF7. More on the design: method as in Khairul et al. [2020]. Particulars: reported chalcone derivatives; ref Khairul et al. [2020]; cited from earlier work.

Values after ≈ are worked out from the molar mass of the structure shown.

With `Cc1ccc(NC(=O)COc2ccc(C=CC(=O)c3cccs3)cc2)cc1` [Compound 5b, 2-(4-(3-Oxo-3-(thiophen-2-yl)prop-1-en-1-yl)phenoxy)-N-(p-tolyl)acetamide], the melting point is 202 to 204 °C. In addition, the inhibition at 100 µg/mL in data set [1] turned out to be 7.2 ± 1.4%. In addition, in data set [2], the inhibition at 100 µg/mL was 5.92 ± 1.2%. In addition, in data set [3], the inhibition at 100 µg/mL was found to be 0.52 ± 2.1%. In addition, the inhibition at 100 µg/mL in data set [4] amounted to 10.2 ± 2%. The inhibition at 100 µg/mL in data set [5] came to 25 ± 1.9%. Besides, the inhibition at 100 µg/mL in data set [6] turned out to be 60 ± 1%.
Take `CCCCCCOc1ccc(/C=C/C(=O)c2ccc(C#N)cc2)cc1` [(E)-1-(4-cyanophenyl)-3-(4-(hexyloxy)phenyl) prop-2-en-1-one]: the “IC50 cytotoxic effect against MCF7” value with MCF7 is on record as 13.75 µg/mL (≈ 41.2 µM).
For `Cc1ccc(NC(=O)COc2ccc(C(=O)C=Cc3cccs3)cc2)cc1` [Compound 9b, 2-(4-(3-(Thiophen-2-yl)acryloyl)phenoxy)-N-(p-tolyl)acetamide], the melting point lay in the range of 200 to 202 °C. Moreover, the inhibition at 100 µg/mL in data set [1] came out at 17.9 ± 1.3%. Moreover, in data set [2], the inhibition at 100 µg/mL is 0.92 ± 1.7%. Further, the inhibition at 100 µg/mL in data set [3] was 18.6 ± 0.05%. In data set [4], the inhibition at 100 µg/mL was 33 ± 3.1%. Further, the inhibition at 100 µg/mL in data set [5] turned out to be 26 ± 1.7%. For the same molecule, the inhibition at 100 µg/mL in data set [6] amounted to 15 ± 2.4%.
On to `COc1cccc2c1C(=O)c1c(O)c3c(c(O)c1C2=O)C[C@@](O)(C(=O)CO)C[C@@H]3O[C@H]1C[C@H](N)[C@H](O)[C@H](C)O1` [Doxorubicin, reference compound], for which the IC50 in data set [1] turned out to be 11 µg/mL (≈ 20.2 µM); in data set [3] it was 5.5 µg/mL (≈ 10.1 µM). Also, the inhibition at 100 µg/mL in data set [1] came out at 83.2 ± 1.1%; in data set [2], 71.5 ± 0.9%; in data set [3], 86.6 ± 1.6%; in data set [4], 77 ± 1.5%; in data set [5], 81 ± 2%; in data set [6], 45 ± 2%.
Consider `O=C(COc1ccc(C=CC(=O)c2cccs2)cc1)Nc1ccccc1` [Compound 5a, 2-(4-(3-Oxo-3-(thiophen-2-yl)prop-1-en-1-yl)phenoxy)-N-phenylacetamide], for which the melting point is 194 to 196 °C. Moreover, the inhibition at 100 µg/mL in data set [1] stood at 4.53 ± 0.08%. In addition, the inhibition at 100 µg/mL in data set [2] came out at 5.18 ± 1.6%. In data set [3], the inhibition at 100 µg/mL came to 33.7 ± 1.5%. In data set [4], the inhibition at 100 µg/mL came to 22 ± 1.4%. Further, the inhibition at 100 µg/mL in data set [5] stood at 30 ± 1.2%. The inhibition at 100 µg/mL in data set [6] came out at 55 ± 3%.
`COc1ccc(NC(=O)COc2ccc(C(=O)C=Cc3cccs3)cc2)cc1` [Compound 9c, N-(4-Methoxyphenyl)-2-(4-(3-(thiophen-2-yl)acryloyl)phenoxy)acetamide]: the melting point was in the range of 205 to 207 °C. For the same molecule, in data set [1], the inhibition at 100 µg/mL amounted to 7.2 ± 1.7%. The inhibition at 100 µg/mL in data set [2] amounted to 16.3 ± 1.9%. In addition, the inhibition at 100 µg/mL in data set [3] is 1.81 ± 1.3%. The inhibition at 100 µg/mL in data set [4] was less than 10%. The inhibition at 100 µg/mL in data set [5] is less than 10%. Moreover, the inhibition at 100 µg/mL in data set [6] is less than 10%.
`O=C(COc1ccc(C=CC(=O)c2cccs2)cc1)Nc1ccc(Cl)cc1` [Compound 5d, N-(4-Chlorophenyl)-2-(4-(3-oxo-3-(thiophen-2-yl)prop-1-en-1-yl)phenoxy)acetamide] gave a melting point of 198 to 200 °C. Also, the inhibition at 100 µg/mL in data set [1] was determined as 0.36 ± 0.05%. In data set [2], the inhibition at 100 µg/mL came to 0.85 ± 1.1%. Further, the inhibition at 100 µg/mL in data set [3] turned out to be 40.09 ± 0.07%. Moreover, in data set [4], the inhibition at 100 µg/mL is 44.1 ± 1.3%. Besides, in data set [5], the inhibition at 100 µg/mL was 45.2 ± 1.7%. For the same molecule, in data set [6], the inhibition at 100 µg/mL stood at 80 ± 2%.
In turn, `O=C(COc1ccc(C(=O)C=Cc2cccs2)cc1)Nc1ccc(Cl)cc1` [Compound 9d, N-(4-Chlorophenyl)-2-(4-(3-(thiophen-2-yl)acryloyl)phenoxy)acetamide] registered a melting point of 193 to 195 °C. The inhibition at 100 µg/mL in data set [1] worked out at 17.9 ± 2.3%. The inhibition at 100 µg/mL in data set [2] came out at 6.66 ± 3.3%. Moreover, the inhibition at 100 µg/mL in data set [3] came out at 2.28 ± 4.1%. Moreover, in data set [4], the inhibition at 100 µg/mL was less than 10%. The inhibition at 100 µg/mL in data set [5] was less than 10%. The inhibition at 100 µg/mL in data set [6] came out at 10 ± 1%.
As for `CCCCCCOc1ccc(/C=C/C(=O)c2ccc([N+](=O)[O-])cc2)cc1` [(E)-1-(4-nitrophenyl)-3-(4-(hexyloxy)phenyl) prop-2-en-1-one], the “IC50 cytotoxic effect against MCF7” value with MCF7 is 14.75 µg/mL (≈ 41.7 µM).
`O=C(COc1ccc(C(=O)C=Cc2cccs2)cc1)Nc1ccccc1` [Compound 9a, N-Phenyl-2-(4-(3-(thiophen-2-yl)acryloyl)phenoxy)acetamide]: the IC50 is 15.5 µg/mL (≈ 42.6 µM) in data set [1] and 24.5 µg/mL (≈ 67.4 µM) in data set [3]. The inhibition at 100 µg/mL in data set [1] is more than 75%; in data set [2], 44.7 ± 1%; in data set [3] it was more than 75%; in data set [4], 52 ± 2.7%; in data set [5], 64 ± 1.5%; in data set [6], 58 ± 1.4%.
